The text below walks through data of patent US8563578B2, “Antitumor properties of NO modified protease inhibitors” (Onconox APS, priority 2008, dated 2013).

The test system of one test is p-Akt in B16 cells. The test can be described thus: Akt phosphorylation (cELISA, Western blot), B16. The format is cell-based, mouse. As to conditions: 18.8 μM, B16 as representative (similar in C6). An excerpt:
A slightly modified method for cell-based ELISA (cELISA) by Versteeg (Versteed et al., 2000) was used to measure the expression of galactocerebroside, glial fibrilar acidic protein (GFAP), myelin basic protein (MBP), cyclin D3, p53 and p-AKT. Briefly, at the end of cultivation period cells were fixed in 4% paraformaldehyde, endogenous peroxydase was quenched with 1% H2O2 in PBS containing 0.1% Triton X-100 (PBST), and unspecific binding of antibodies blocked with PBST solution containing 10% FCS. […] The absorbance at 450 nm was measured in an automated microplate reader 15 min after incubation with peroxydase substrate TMB and subsequently to addition of 0.1 M HCl. To facilitate comparison between treatments, the obtained absorbances were corrected for the cell number that was determined by crystal violet staining, as described in the original protocol. […]
FIG. 6. […] (C) B16 cells (1×10^4 cells/well) were incubated for 24 h with 18.8 μM Saq-NO2 with or without Akt VI (50μg/ml) or 3-MA (1 mM) and cell viability was assessed by MTT. […]

A further test relates to B16 cells. The test can be described thus: Cell cycle / apoptosis by propidium iodide flow cytometry, B16. The format is cell-based, mouse. As to conditions: 18.8 μM, 24 h. How it is done:
Apoptotic cell death was assessed by flow cytometry analysis of DNA fragmentation in cells stained with DNA-binding dye propidium iodide (PI). Following a 24 h incubation in 6-well plate, cells (2×10^5/well) were detached with trypsin, washed and fixed in 70% ethanol at 4° C. for 30 min. After washing in PBS, cells were resuspended in PBS containing 1 mg/ml RNase and propidium iodide (40 μg/ml) and kept at 37° C. in the dark for 30 min. Red fluorescence was analyzed with FACSCalibur flow cytometer (BD, Heidelberg, Germany) and distribution of cells among cell cycle phases was determined with Cell Quest Pro software (BD). Hypodiploid cells in sub-G0/G1 compartment were considered apoptotic.
FIG. 4. […] Results are calculated as indicated in materials and methods and presented as mean±SD from representative of three independent experiment (*p <0.05). […] After 24 h of cultivation without or with drugs, cells were stained with AO orange (B) or PI (C) and analyzed by flow cytometry. The data are presented as mean±SD from three independent experiments. *p<0.05, refers to untreated cultures. […] Cells were incubated with 18.8 μM of Sag or Saq-NO2 for 24 h. After that, the drugs were either removed or not from the cells and incubated for additional 24 h. Cell viability was determined by CV test after 24 and 48 h of incubation (right panels). The data are presented as mean±SD from three independent experiments. *p<0.05, refers to untreated cultures.

A further test concerns CCR% e CXCR4 strains. Nature of the test: In-vitro anti-HIV activity. The format is cell-based.

`CC(C)(C)NC(=O)[C@@H]1C[C@@H]2CCCC[C@@H]2CN1C[C@@H](O)[C@H](Cc1ccccc1)NC(=O)[C@H](CC(N)=O)NC(=O)c1ccc2ccccc2n1` [Saq, Saquinavir, reference compound]: in the test with p-Akt in B16 cells, the “p-Akt expression / phosphorylation of AKT” value was “abrogated p-Akt expression”. In the test on B16 cells, the cell cycle distribution result is “did not show considerably different distribution from control”.
Turning to `CC(C)(C)NC(=O)[C@@H]1C[C@@H]2CCCC[C@@H]2CN1C[C@@H](O[N+](=O)[O-])[C@H](Cc1ccccc1)NC(=O)[C@H](CC(N)=O)NC(=O)c1ccc2ccccc2n1` [Saq-NO2, nitric ester of Saquinavir], the “in-vitro anti-HIV activity compared with Saquinavir” value in the test with CCR% e CXCR4 strains is reported as “at least as high as that of Saquinavir”. Besides, the “p-Akt expression / phosphorylation of AKT” value in the test on p-Akt in B16 cells is “induced considerable transient phosphorylation of AKT”. Also, in the test with B16 cells, the apoptosis result is on record as “statistically significant apoptosis” and the cell cycle distribution result was “accumulation of cells in G2/M phase”.
